From patent publication US9193954B2, “Methods and compositions for mesenchymal stem cell proliferation” (priority 2011, dated 2015)

What was measured:
Format in all cases: cell-based, human
hMSCs [1] = test: Two-dimensional hMSC proliferation by manual cell counts (trypan blue, hemocytometer); settings: for increase in cell population compared to untreated controls: day 41, 24 hr treatment
Procedure: (§1) FIG. 4 Schematic representation of 41 day hMSC monolayer culture after 24 hr exposure to BIO-containing media (A). Cells were trypsinized and manually counted on days 0, 1, 3, 6, 19, 27, 34, 37, and 41 and shown to undergo a dose-dependent, BIO-mediated increase in proliferation (B).
hMSCs or C3H10T1/2s were seeded at a density of 5,000 cell/cm^2 in 24-well tissue culture plates (Greiner Bio-One, Monroe, N.C.) and allowed to become adherent over a period of 24 hrs prior to treatment. BIO was solubilized in dimethyl sulfoxide (DMSO) to prepare 200 and 500 μM stock solutions. 10 μL of BIO in DMSO was added to 1 mL of culture media so that the final concentrations of 0, 2, and 5 μM were achieved. The cells were cultured with BIO-containing media for 24 hrs after which media was replaced by media without BIO, as illustrated in FIGS. 4a and 7a (two-dimensional treatment and three-dimensional treatment respectively).
During culture, hMSC viability was periodically assessed using an alamarBlue metabolic assay (AbD Serotec, UK). Culture media was replaced with a 10% alamarBlue-media solution and allowed to incubate at 37° C. for 2 hr. After incubation, alamarBlue solution was transferred to black 96-well plates and media was refreshed. Fluorescence intensity was measured using a Tecan Infinite 200 PRO plate-reader (excitation/emission: 570/600 nm). To assess hMSC proliferation, cells were trypsinized and counted using trypan blue exclusion and a hemocytometer. Average cell counts were normalized to data collected on day 0 to illustrate the effect of BIO on hMSC proliferation over time.

hMSCs [2] = test: LIVE/DEAD confocal imaging of two-dimensional BIO-treated hMSC cultures; settings: no detectable dead cells
Procedure: as §1
hMSC cell layer thickness was measured using the z-directional controls of a FV1000 Olympus Laser Scanning Confocal Microscope. On days 1, 14, and 40 cells, seeded on optically clear glass bottom 24-well culture plates (MatTek, Ashland, Mass.) were stained using a fluorescent LIVE/DEAD Viability/Cytotoxicity kit (Invitrogen). The focal plane of the microscope was adjusted to the cell-plate interface and set to zero. Using the z-directional controls the focal plane was raised until the live fluorescently stained cells were no longer visible at which point the cell layer thickness was recorded.

hMSCs [3] = test: Media induced differentiation of BIO-treated hMSCs (histology and Cbfa1, Sox9, PPARγ expression)
Procedure: Dev Cell. […] After 24 hrs cell media was replaced and cells were allowed to proliferate over three weeks. After three weeks BIO-treated hMSCs were cultured for three weeks in standard differentiation-inducing media (FIG. 6a). For osteogenic differentiation hMSCs were grown in normal growth media with osteogenic supplements (100 nM dexamethasone, 10 mM β-glycerophosphate, 50 μM ascorbic acid-2-phosphate). […] Differentiated two-dimensional cell cultures were fixed in 24-well tissue culture plates for 48 hrs in 4% paraformaldehyde and the monolayers were stained for mineralization (von Kossa, osteogenic), or the presence of lipid droplets (oil red o, adipogenic). Undifferentiated cultures were also stained as negative controls. Images were taken on a Motic AE20 inverted light microscope using a Canon EOS Rebel T2i with an eyepiece modification.
For chondrogenic differentiation, hMSCs were seeded at a density of 5,000 cell/cm^2 in T-75 tissue culture flasks, allowed to become adherent, and treated with BIO containing growth media for 24 hrs. After 24 hrs, cell media was replaced and cells were allowed to proliferate over three weeks (FIG. 6a). […] Pellet cultures were fixed for 48 hrs in 4% paraformaldehyde, cryosectioned, and stained for glycosaminoglycan production (toluidine blue, chondrogenic). Stained sections were imaged as described above.
RT-PCR was used to assess gene expression of hMSCs over time. At days: 0 (before BIO treatment), 1, 3, 6, 19, 29, 34, 37, and 41, samples were lysed and total RNA was isolated (ENZA Total RNA Kit, Omega). Reverse transcription was performed using the iScript cDNA Synthesis Kit (Bio-Rad). The reverse transcription reaction was incubated at 25° C. for 5 min, 42° C. for 30 min, and terminated at 85° C. for 5 min. PCR was performed using a CFX96 Real-Time PCR System (Bio-Rad), monitoring sybrgreen products (SsoFastEvaGreen Master Mix, Bio-Rad). Primers for β-actin, sex determining region Y-box 2 (Sox2), Nanog homobox (Nanog), and octamer-binding transcription factor 4 (Oct4), core-binding factor subunit alpha-1 (Cbfa1, also known as Runx2), sex determining region Y-box 9 (Sox9), and peroxisome proliferator-activated receptor gamma (PPARγ) were used (Table 2). The PCR parameters used were as follows: hold at 95° C. for 5 min, followed by 40 cycles of: 95° C. for 15 sec denaturation, 60° C. (β-actin, Sox2, Sox9), or 57° C. (Nanog, Oct4, Cbfa1), or 55° C. (PPARγ) for 60 sec annealing, and 72° C. for 20 sec extension. Threshold cycle (CT) analysis was used to quantify PCR products normalized to the cellular housekeeping gene β-actin. Relative gene quantification was performed using the Pfaffl Method, taking into account the variation between primer efficiencies.

[4] = tested on: stem markers Sox2 and Nanog; test: RT-PCR of stem markers Sox2 and Nanog at end of 33 day culture, normalized to GAPDH (Example 1); settings: end of 33 day time course
Procedure: FIG. 2 RNA was harvested from BIO treated hMSCs at day […] and analyzed for expression of stem markers Sox2 and Nanog. Expression was normalized to housekeeping gene GAPDH. Error bars shown are standard error (n=3).
At the end of the 33 day experimental time course RNA was isolated (Omega E.N.Z.A total RNA kit) from the hMSC specimens (n=3) and reverse transcription (Bio-Rad iSCRIPT cDNA synthesis kit) was performed to yield cDNA. Forward and reverse primers (Table 1.) for the stem markers Sox2 and Nanog as well as the housekeeping gene, GAPDH (Glyceraldehyde 3-phosphate dehydrogenase) were then used to quantify gene expression. Expressions of genes of interest (Sox2 and Nanog) were normalized to control (GAPDH). We observed a dose dependent increase in both Sox2 and Nanog gene expression. Sox2 expression increased ˜30% and ˜50% with 2 μM and 5 μM BIO treatment, while Nanog expression increased >100% with 5 μM BIO treatment (FIG. 2).

[5] = 5 μM BIO, adipogenic-differentiated hMSCs
[6] = 5 μM BIO, osteogenic differentiated hMSCs

## O=C1Nc2cc(Br)ccc2/C1=C1/Nc2ccccc2/C1=N\O [BIO, 6-bromoindirubin-3′-oxime]
hMSCs [1]; 2 uM BIO
  2D proliferation relative to untreated control: 155%
hMSCs [1]; 2 μM BIO
  increase in cell population compared to untreated controls: 4.5 fold
hMSCs [1]; 5 uM BIO
  2D proliferation relative to untreated control: 172%
hMSCs [1]; 5 μM BIO
  increase in cell population compared to untreated controls: 5.5 fold
hMSCs [1]; BIO-treated hMSCs, concentration and day not stated
  hMSC population increase: ~4 fold
hMSCs [2]
  live cells (LIVE/DEAD imaging): ~100%
hMSCs [3]; 5 μM BIO 24 hrs, 21 days proliferation, 3 weeks differentiation media
  histological analysis of differentiation (von Kossa, toluidine blue, oil red o), BIO-treated versus untreated: uniform mineralization
hMSCs [3]; [5]
  PPARγ expression over undifferentiated controls: 31.2 fold
  increase in PPARγ expression compared to differentiated non-BIO-treated (0 μM) controls: 5.0 fold
hMSCs [3]; 5 μM BIO, chondrogenic-differentiated hMSCs, not statistically significant
  Sox9 expression compared with undifferentiated controls: 0.6 fold
hMSCs [3]; [6]
  Cbfa1 expression over undifferentiated controls: 3.9 fold
  increase in Cbfa1 expression compared to differentiated non-BIO-treated (0 μM) controls: 2.1 fold
[4]; 2 μM BIO
  Sox2 expression increase: ~30%
[4]; 5 μM BIO
  Nanog expression increase: > 100%
  Sox2 expression increase: ~50%
